{"source": "patent US20220144815A1", "about": "“1,3,4-OXADIAZOLES AND THEIR DERIVATIVES AS NEW ANTIFUNGAL AGENTS” (Bayer Aktiengesellschaft, priority 2018, published 2022)", "data": [{"assay": "Log P by HPLC on reversed phase columns, method [a] (EEC directive 79/831 Annex V.A8)", "format": "physicochemical", "conditions": "reversed phase HPLC column; method [a], HPLC on reversed phase columns; read-out: logP", "method_in_brief": "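Log P calibrated with C3–C16 straight-chain alkan-2-ones of known Log P, interpolating linearly between retention times. Method per EEC 79/831 Annex V.A8: reversed-phase LC-UV in the acidic range, water/0.1% formic acid and acetonitrile gradient from 10% to 95% acetonitrile.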", "values": [{"smiles": "Fc1ccccc1C1(Nc2ncc(-c3nnc(C(F)(F)F)s3)cn2)CC1", "note": "[I.178, N-[1-(2-fluorophenyl)cyclopropyl]-5-[5-(trifluoromethyl)-1,3,4-thiadiazol-2-yl]pyrimidin-2-amine]", "chromatographic logP": 3.79}, {"smiles": "Fc1ccccc1C1(Nc2ncc(-c3nnc(C(F)(F)Cl)o3)cn2)CC1", "note": "[I.179, 5-{5-[chloro(difluoro)methyl]-1,3,4-oxadiazol-2-yl}-N-[1-(2-fluorophenyl)cyclopropyl]pyrimidin-2-amine]", "chromatographic logP": 3.76}, {"smiles": "O=C(c1ccc(F)cc1F)N(C(=O)c1ccc(F)cc1F)c1ncc(-c2nnc(C(F)F)o2)cn1", "note": "[I.185, N-(2,4-difluorobenzoyl)-N-{5-[5-(difluoromethyl)-1,3,4-oxadiazol-2-yl]pyrimidin-2-yl}-2,4-difluorobenzamide]", "chromatographic logP": 3.59}, {"smiles": "CC(C)C1(Nc2ncc(-c3nnc(C(F)F)o3)cn2)CC1", "note": "[I.187, 5-[5-(difluoromethyl)-1,3,4-oxadiazol-2-yl]-N-(1-isopropylcyclopropyl)pyrimidin-2-amine]", "chromatographic logP": 2.65}, {"smiles": "FC(F)c1nnc(-c2cnc(NC3(c4ccccc4)CC3)nc2)o1", "note": "[I.195, 5-[5-(difluoromethyl)-1,3,4-oxadiazol-2-yl]-N-(1-phenylcyclopropyl)pyrimidin-2-amine]", "chromatographic logP": 2.62}, {"smiles": "CC(C)(Nc1ncc(-c2nnc(C(F)F)o2)cn1)c1ccccc1", "note": "[I.197, 5-[5-(difluoromethyl)-1,3,4-oxadiazol-2-yl]-N-(2-phenylpropan-2-yl)pyrimidin-2-amine]", "chromatographic logP": 3.08}, {"smiles": "CC(C)(Nc1ncc(-c2nnc(C(F)F)o2)cn1)c1ccccn1", "note": "[I.198, 5-[5-(difluoromethyl)-1,3,4-oxadiazol-2-yl]-N-[2-(pyridin-2-yl)propan-2-yl]pyrimidin-2-amine]", "chromatographic logP": 1.11}, {"smiles": "CC(C)(Nc1ncc(-c2nnc(C(F)F)o2)cn1)c1cccnc1", "note": "[I.199, 5-[5-(difluoromethyl)-1,3,4-oxadiazol-2-yl]-N-[2-(pyridin-3-yl)propan-2-yl]pyrimidin-2-amine]", "chromatographic logP": 0.91}, {"smiles": "Fc1ccc(CCNc2ncc(-c3nnc(C(F)F)o3)cn2)cc1", "note": "[I.200, 5-[5-(difluoromethyl)-1,3,4-oxadiazol-2-yl]-N-[2-(4-fluorophenyl)ethyl]pyrimidin-2-amine]", "chromatographic logP": 2.84}, {"smiles": "FC(F)c1nnc(-c2cnc(NC3(Cc4ccccc4)CC3)nc2)o1", "note": "[I.201, N-(1-benzylcyclopropyl)-5-[5-(difluoromethyl)-1,3,4-oxadiazol-2-yl]pyrimidin-2-amine]", "chromatographic logP": 2.99}, {"smiles": "Cc1cccc(C2(Nc3ncc(-c4nnc(C(F)F)o4)cn3)CC2)c1", "note": "[I.202, 5-[5-(difluoromethyl)-1,3,4-oxadiazol-2-yl]-N-[1-(3-methylphenyl)cyclopropyl]pyrimidin-2-amine]", "chromatographic logP": 2.95}, {"smiles": "Cc1ccnc(C2(Nc3ncc(-c4nnc(C(F)F)o4)cn3)CC2)c1", "note": "[I.203, 5-[5-(difluoromethyl)-1,3,4-oxadiazol-2-yl]-N-[1-(4-methylpyridin-2-yl)cyclopropyl]pyrimidin-2-amine]", "chromatographic logP": 0.93}, {"smiles": "Cc1ccc(C(C)(C)Nc2ncc(-c3nnc(C(F)F)o3)cn2)cc1", "note": "[I.204, 5-[5-(difluoromethyl)-1,3,4-oxadiazol-2-yl]-N-[2-(4-methylphenyl)propan-2-yl]pyrimidin-2-amine]", "chromatographic logP": 3.46}, {"smiles": "Cc1ccccc1C(C)(C)Nc1ncc(-c2nnc(C(F)F)o2)cn1", "note": "[I.205, 5-[5-(difluoromethyl)-1,3,4-oxadiazol-2-yl]-N-[2-(2-methylphenyl)propan-2-yl]pyrimidin-2-amine]", "chromatographic logP": 3.28}, {"smiles": "FC(F)c1nnc(-c2cnc(NC3(c4ccco4)CCCC3)nc2)o1", "note": "[I.208, 5-[5-(difluoromethyl)-1,3,4-oxadiazol-2-yl]-N-[1-(2-furyl)cyclopentyl]pyrimidin-2-amine]", "chromatographic logP": 3.18}, {"smiles": "CC(C)(Nc1ncc(-c2nnc(C(F)F)o2)cn1)c1ccccc1F", "note": "[I.212, 5-[5-(difluoromethyl)-1,3,4-oxadiazol-2-yl]-N-[2-(2-fluorophenyl)propan-2-yl]pyrimidin-2-amine]", "chromatographic logP": 3.19}, {"smiles": "Cc1cccc(C)c1C1(Nc2ncc(-c3nnc(C(F)F)o3)cn2)CC1", "note": "[I.216, 5-[5-(difluoromethyl)-1,3,4-oxadiazol-2-yl]-N-[1-(2,6-dimethylphenyl)cyclopropyl]pyrimidin-2-amine]", "chromatographic logP": 3.8}, {"smiles": "FC(F)c1nnc(-c2cnc(NC3(c4cccnc4)CCCC3)nc2)o1", "note": "[I.218, 5-[5-(difluoromethyl)-1,3,4-oxadiazol-2-yl]-N-[1-(pyridin-3-yl)cyclopentyl]pyrimidin-2-amine]", "chromatographic logP": 1.29}, {"smiles": "FC(F)c1nnc(-c2cnc(NC3(c4ccccn4)CCCC3)nc2)o1", "note": "[I.219, 5-[5-(difluoromethyl)-1,3,4-oxadiazol-2-yl]-N-[1-(pyridin-2-yl)cyclopentyl]pyrimidin-2-amine]", "chromatographic logP": 1.38}, {"smiles": "Fc1ccc(C2(Nc3ncc(-c4nnc(C(F)F)o4)cn3)CCC2)cc1", "note": "[I.220, 5-[5-(difluoromethyl)-1,3,4-oxadiazol-2-yl]-N-[1-(4-fluorophenyl)cyclobutyl]pyrimidin-2-amine]", "chromatographic logP": 3.33}, {"smiles": "CN(c1ncc(-c2nnc(C(F)F)o2)cn1)C1(c2ccccc2F)CC1", "note": "[I.221, 5-[5-(difluoromethyl)-1,3,4-oxadiazol-2-yl]-N-[1-(2-fluorophenyl)cyclopropyl]-N-methylpyrimidin-2-amine]", "chromatographic logP": 3.98}, {"smiles": "COC(=O)C(Nc1ncc(-c2nnc(C(F)F)o2)cn1)c1ccccn1", "note": "(stereo not drawn) [I.222, methyl ({5-[5-(difluoromethyl)-1,3,4-oxadiazol-2-yl]pyrimidin-2-yl}amino)(pyridin-2-yl)acetate]", "chromatographic logP": 1.92}, {"smiles": "CC(C)(Cc1ccc(F)cc1)Nc1ncc(-c2nnc(C(F)F)o2)cn1", "note": "[I.223, 5-[5-(difluoromethyl)-1,3,4-oxadiazol-2-yl]-N-[1-(4-fluorophenyl)-2-methylpropan-2-yl]pyrimidin-2-amine]", "chromatographic logP": 3.79}, {"smiles": "CC(C)(CNc1ncc(-c2nnc(C(F)F)o2)cn1)c1ccc(F)cc1", "note": "[I.224, 5-[5-(difluoromethyl)-1,3,4-oxadiazol-2-yl]-N-[2-(4-fluorophenyl)-2-methylpropyl]pyrimidin-2-amine]", "chromatographic logP": 3.44}, {"smiles": "FC(F)c1nnc(-c2cnc(NC3(c4cccs4)CCCC3)nc2)o1", "note": "[I.225, 5-[5-(difluoromethyl)-1,3,4-oxadiazol-2-yl]-N-[1-(2-thienyl)cyclopentyl]pyrimidin-2-amine]", "chromatographic logP": 3.45}, {"smiles": "FC(F)c1nnc(-c2cnc(NC3(c4ccc(Cl)cc4)CC3)nc2)o1", "note": "[I.226, N-[1-(4-chlorophenyl)cyclopropyl]-5-[5-(difluoromethyl)-1,3,4-oxadiazol-2-yl]pyrimidin-2-amine]", "chromatographic logP": 3.16}, {"smiles": "FC(F)c1nnc(-c2cnc(NC3(c4cccc(Cl)c4)CC3)nc2)o1", "note": "[I.227, N-[1-(3-chlorophenyl)cyclopropyl]-5-[5-(difluoromethyl)-1,3,4-oxadiazol-2-yl]pyrimidin-2-amine]", "chromatographic logP": 3.11}, {"smiles": "FC(F)c1nnc(-c2cnc(NC3(c4cc(Cl)ccn4)CC3)nc2)o1", "note": "[I.228, N-[1-(4-chloropyridin-2-yl)cyclopropyl]-5-[5-(difluoromethyl)-1,3,4-oxadiazol-2-yl]pyrimidin-2-amine]", "chromatographic logP": 2.31}, {"smiles": "Fc1ccc(C2(Nc3ncc(-c4nnc(C(F)F)o4)cn3)CC2)cc1F", "note": "[I.229, 5-[5-(difluoromethyl)-1,3,4-oxadiazol-2-yl]-N-[1-(3,4-difluorophenyl)cyclopropyl]pyrimidin-2-amine]", "chromatographic logP": 2.84}, {"smiles": "CC(C)(Nc1ncc(-c2nnc(C(F)F)o2)cn1)c1ccc(Cl)cc1", "note": "[I.231, N-[2-(4-chlorophenyl)propan-2-yl]-5-[5-(difluoromethyl)-1,3,4-oxadiazol-2-yl]pyrimidin-2-amine]", "chromatographic logP": 3.55}, {"smiles": "Fc1ccc(C(F)(F)CNc2ncc(-c3nnc(C(F)F)o3)cn2)cc1", "note": "[I.234, N-[2,2-difluoro-2-(4-fluorophenyl)ethyl]-5-[5-(difluoromethyl)-1,3,4-oxadiazol-2-yl]pyrimidin-2-amine]", "chromatographic logP": 2.9}, {"smiles": "COc1cccc(C2(Nc3ncc(-c4nnc(C(F)F)o4)cn3)CC2)c1F", "note": "[I.236, 5-[5-(difluoromethyl)-1,3,4-oxadiazol-2-yl]-N-[1-(2-fluoro-3-methoxyphenyl)cyclopropyl]pyrimidin-2-amine]", "chromatographic logP": 2.81}, {"smiles": "FC(F)c1nnc(-c2cnc(NC3(c4ccc(Cl)cc4)CCC3)nc2)o1", "note": "[I.237, N-[1-(4-chlorophenyl)cyclobutyl]-5-[5-(difluoromethyl)-1,3,4-oxadiazol-2-yl]pyrimidin-2-amine]", "chromatographic logP": 3.71}, {"smiles": "FC(F)c1nnc(-c2cnc(NC(c3ccccc3)c3ccccc3)nc2)o1", "note": "[I.238, 5-[5-(difluoromethyl)-1,3,4-oxadiazol-2-yl]-N-(diphenylmethyl)pyrimidin-2-amine]", "chromatographic logP": 3.52}, {"smiles": "C#CCN(c1ncc(-c2nnc(C(F)F)o2)cn1)C1(c2ccccc2F)CC1", "note": "[I.241, 5-[5-(difluoromethyl)-1,3,4-oxadiazol-2-yl]-N-[1-(2-fluorophenyl)cyclopropyl]-N-(prop-2-yn-1-yl)pyrimidin-2-amine]", "chromatographic logP": 4.09}, {"smiles": "CC(C)(C)c1ccc(C2(Nc3ncc(-c4nnc(C(F)F)o4)cn3)CC2)cc1", "note": "[I.242, N-[1-(4-tert-butylphenyl)cyclopropyl]-5-[5-(difluoromethyl)-1,3,4-oxadiazol-2-yl]pyrimidin-2-amine]", "chromatographic logP": 4.05}, {"smiles": "COc1ccc(C2(Nc3ncc(-c4nnc(C(F)F)o4)cn3)CC2)cc1OC", "note": "[I.243, 5-[5-(difluoromethyl)-1,3,4-oxadiazol-2-yl]-N-[1-(3,4-dimethoxyphenyl)cyclopropyl]pyrimidin-2-amine]", "chromatographic logP": 2.39}, {"smiles": "Fc1ccc([C@H](Nc2ncc(-c3nnc(C(F)F)o3)cn2)C2CCCC2)cc1", "note": "[I.244, N—[(R)-cyclopentyl(4-fluorophenyl)methyl]-5-[5-(difluoromethyl)-1,3,4-oxadiazol-2-yl]pyrimidin-2-amine]", "chromatographic logP": 4.05}, {"smiles": "FC(F)Oc1cccc(C2(Nc3ncc(-c4nnc(C(F)F)o4)cn3)CC2)c1", "note": "[I.246, N-{1-[3-(difluoromethoxy)phenyl]cyclopropyl}-5-[5-(difluoromethyl)-1,3,4-oxadiazol-2-yl]pyrimidin-2-amine]", "chromatographic logP": 2.91}]}]}
